From US12441768B2, “Compositions and methods for treating endometriosis” (EndoMet Biosciences, Inc., priority 2018, dated 2025)
Where a SMILES comes first, the peptide text is derived from it.

Tests used:
[1] = target: Wnt-responsive promoter (TCF/LEF); assay: Wnt-dependent luciferase reporter assay; format: cell-based, murine
Method in brief: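 EC50 (uM) derived from inhibition of luminescence in Wnt3a-stimulated murine 3T3 cells expressing luciferase under a TCF/LEF promoter, with peptides added across a concentration range and vehicle as control.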

[2] = % Viability non-Wnt responsive cells
β-catenin = target: T1, β-catenin (Homo sapiens, UniProt P35222); assay: KD50 measurement using competitive fluorescence polarization (FP) with labelled TCF4; format: binding; conditions: fluorescence polarization, β-catenin; for Kd: read-out: β-Cat FP KD
T1 sequence (P35222 1-781): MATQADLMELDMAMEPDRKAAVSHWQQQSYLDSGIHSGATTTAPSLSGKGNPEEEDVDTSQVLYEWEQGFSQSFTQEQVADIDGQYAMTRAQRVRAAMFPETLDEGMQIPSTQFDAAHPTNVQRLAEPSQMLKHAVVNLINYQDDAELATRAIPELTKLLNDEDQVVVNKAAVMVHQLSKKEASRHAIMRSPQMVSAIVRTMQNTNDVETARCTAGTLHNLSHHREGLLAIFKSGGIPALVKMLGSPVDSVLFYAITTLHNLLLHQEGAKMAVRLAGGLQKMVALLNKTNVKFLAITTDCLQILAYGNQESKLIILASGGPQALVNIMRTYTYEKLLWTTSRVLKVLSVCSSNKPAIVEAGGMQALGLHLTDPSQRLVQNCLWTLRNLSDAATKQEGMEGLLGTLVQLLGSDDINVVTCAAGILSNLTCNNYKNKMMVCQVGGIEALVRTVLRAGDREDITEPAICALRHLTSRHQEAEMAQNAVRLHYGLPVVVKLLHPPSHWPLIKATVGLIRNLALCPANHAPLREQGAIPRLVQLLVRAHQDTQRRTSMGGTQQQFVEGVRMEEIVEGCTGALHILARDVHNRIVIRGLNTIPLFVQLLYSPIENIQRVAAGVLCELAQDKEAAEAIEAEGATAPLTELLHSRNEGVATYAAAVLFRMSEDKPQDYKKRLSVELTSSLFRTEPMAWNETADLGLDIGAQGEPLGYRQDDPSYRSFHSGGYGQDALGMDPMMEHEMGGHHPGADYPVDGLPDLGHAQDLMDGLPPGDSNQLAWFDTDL
Method in brief: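 First, β-catenin at 100 nM is mixed with 5 nM labelled TCF4 at room temperature. Next, compound is added across serial dilutions (10 nM to 30 uM). Finally, fluorescence polarization is measured (ex 470 nm, em 520 nm); experiments are done three times.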

Row | SMILES | EC50 [1] [µM] | β-Cat FP Hill slope (β-catenin) | Kd (β-catenin) [µM] | viability [2] [%]
1 | CC[C@H](C)[C@@H]1NC(=O)[C@H](CC(C)C)NC(=O)[C@H](C2CCCCC2)NC(=O)[C@H](Cc2c[nH]c3ccccc23)NC(=O)[C@@H](N)CCCCNC(=O)C[C@@H](C(=O)O)NC(=O)[C@H](Cc2c[nH]c3ccccc23)NC(=O)[C@H](C)NC(=O)[C@H](CO)NC1=O [compound 204] (HELM PEPTIDE1{K.W.[O=C([C@@H](N[*:1])C1CCCCC1)[*:2]].L.I.S.A.W.D}$PEPTIDE1,PEPTIDE1,1:R3-9:R3$$$V2.0) | < 7.5 | 0.74 | 0.4 to 1 | 108
2 | CC[C@H](C)[C@H](NC(=O)[C@@H]1CCC(=O)NCCCC[C@H](N)C(=O)N[C@@H](Cc2c[nH]c3ccccc23)C(=O)N[C@@H](Cc2ccccc2)C(=O)N1)C(=O)N[C@@H](CO)C(=O)N[C@@H](Cc1ccccc1)C(=O)N[C@@H](Cc1c[nH]c2ccccc12)C(=O)NCC(=O)O [compound 208] (HELM PEPTIDE1{K.W.F.E.I.S.F.W.G}$PEPTIDE1,PEPTIDE1,1:R3-4:R3$$$V2.0) | 7.5 to 15 | 0.69 | 1 to 10 | 93.4
3 | CC[C@H](C)[C@H](NC(=O)[C@H](CC(C)C)NC(=O)[C@H](Cc1ccccc1)NC(=O)[C@H](C)NC(=O)[C@@H](N)CCSC)C(=O)N[C@@H](CO)C(=O)N[C@@H](Cc1ccccc1)C(=O)N[C@@H](Cc1c[nH]c2ccccc12)C(=O)NCC(=O)O [compound 210] (H-MAFLISFWG-OH) | < 7.5 | 0.6 | 1 to 10 | 96.4
4 | CC[C@H](C)[C@H](NC(=O)[C@H](CC(C)C)NC(=O)[C@H](Cc1ccccc1)NC(=O)[C@H](Cc1c[nH]c2ccccc12)NC(=O)[C@@H](N)CCSC)C(=O)N[C@@H](CS)C(=O)N[C@@H](C)C(=O)N[C@@H](Cc1c[nH]c2ccccc12)C(=O)NCC(=O)O [compound 211] (H-MWFLICAWG-OH) | < 7.5 | 0.67 | 1 to 10 | 93.9
5 | CC[C@H](C)[C@H](NC(=O)[C@H](CC(C)C)NC(=O)[C@H](Cc1ccccc1)NC(=O)[C@H](Cc1c[nH]c2ccccc12)NC(=O)[C@@H](N)CCSC)C(=O)N[C@@H](C)C(=O)N[C@@H](C)C(=O)N[C@@H](Cc1c[nH]c2ccccc12)C(=O)NCC(=O)O [compound 212] (H-MWFLIAAWG-OH) | < 7.5 | 1.05 | 0.4 to 1 | 99.3
6 | CC[C@H](C)[C@H](NC(=O)[C@H](CC(C)C)NC(=O)[C@H](Cc1ccccc1)NC(=O)[C@H](Cc1c[nH]c2ccccc12)NC(=O)[C@@H](N)CCSC)C(=O)N[C@@H](CSC)C(=O)N[C@@H](Cc1ccccc1)C(=O)N[C@@H](Cc1c[nH]c2ccccc12)C(=O)NCC(=O)O [compound 214] (H-MWFLIC(Me)FWG-OH) | < 7.5 | 0.7 | 0.4 to 1 | 102
7 | CC[C@H](C)[C@H](NC(=O)[C@H](CC(C)C)NC(=O)[C@@H](NC(=O)[C@H](Cc1c[nH]c2ccccc12)NC(=O)[C@H](CCSC)NC(C)=O)C1CCCCC1)C(=O)N[C@@H](CO)C(=O)N[C@@H](Cc1ccccc1)C(=O)N[C@@H](Cc1c[nH]c2ccccc12)C(=O)NCC(=O)O [compound 217] (HELM PEPTIDE1{[ac].M.W.[O=C([C@@H](N[*:1])C1CCCCC1)[*:2]].L.I.S.F.W.G}$$$$V2.0) | < 7.5 | 1.47 | < 0.4 | 87.9
8 | CC[C@H](C)[C@H](NC(=O)[C@H](CC(C)C)NC(=O)[C@H](CC(C)C)NC(=O)[C@H](Cc1c[nH]c2ccccc12)NC(=O)[C@H](CCSC)NC(C)=O)C(=O)N[C@@H](CO)C(=O)N[C@@H](Cc1ccccc1)C(=O)N[C@@H](Cc1c[nH]c2ccccc12)C(=O)NCC(=O)O [compound 218] (Ac-MWLLISFWG-OH) | < 7.5 | 1.85 | < 0.4 | 90.8
9 | CC[C@H](C)[C@H](NC(=O)[C@H](CC(C)C)NC(=O)[C@H](Cc1ccccc1)NC(=O)[C@H](Cc1c[nH]c2ccccc12)NC(=O)[C@H](CCSC)NC(C)=O)C(=O)N[C@@H](CO)C(=O)N[C@@H](Cc1ccccc1)C(=O)N[C@@H](Cc1c[nH]c2ccccc12)C(=O)NCC(=O)O [compound 219] (Ac-MWFLISFWG-OH) | < 7.5 | 0.86 | 0.4 to 1 | 90.6
10 | CC[C@H](C)[C@H](NC(=O)[C@H](CC(C)C)NC(=O)[C@H](Cc1ccccc1)NC(=O)[C@H](Cc1c[nH]c2ccccc12)NC(C)=O)C(=O)N[C@@H](CO)C(=O)N[C@@H](Cc1ccccc1)C(=O)N[C@@H](Cc1c[nH]c2ccccc12)C(=O)NCC(=O)O [compound 220] (Ac-WFLISFWG-OH) | < 7.5 | 2.99 | 0.4 to 1 | 93.2

Second part, led by results:

Row | EC50 [1] [µM] | β-Cat FP Hill slope (β-catenin) | Kd (β-catenin) [µM] | SMILES | viability [2] [%]
11 | > 30 |  | > 30 | CC[C@H](C)[C@@H]1NC(=O)[C@H](CC(C)C)NC(=O)[C@H](C(C)(C)C)NC(=O)[C@H](Cc2c[nH]c3ccccc23)NC(=O)[C@@H](N)CCCCNC(=O)C[C@@H](C(=O)O)NC(=O)[C@H](Cc2c[nH]c3ccccc23)NC(=O)[C@H](C)NC(=O)[C@H](CO)NC1=O [compound 205] (HELM PEPTIDE1{K.W.[CC(C)(C)[C@H](N[*:1])C(=O)[*:2]].L.I.S.A.W.D}$PEPTIDE1,PEPTIDE1,1:R3-9:R3$$$V2.0) | 114
12 | 15 to 22.5 |  | > 30 | CC[C@H](C)[C@@H]1NC(=O)[C@H](CC(C)C)NC(=O)[C@H](CC(C)C)NC(=O)[C@H](Cc2c[nH]c3ccccc23)NC(=O)[C@@H](N)CCCCNC(=O)C[C@@H](C(=O)O)NC(=O)[C@H](Cc2c[nH]c3ccccc23)NC(=O)[C@H](C)NC(=O)[C@H](CO)NC1=O [compound 206] (HELM PEPTIDE1{K.W.L.L.I.S.A.W.D}$PEPTIDE1,PEPTIDE1,1:R3-9:R3$$$V2.0) | 98.7
13 | < 7.5 | 0.7 | 0.4 to 1 | CC[C@H](C)[C@@H]1NC(=O)[C@H](CC(C)C)NC(=O)[C@H](Cc2ccccc2)NC(=O)[C@H](Cc2c[nH]c3ccccc23)NC(=O)[C@@H](N)CCCCNC(=O)CNC(=O)C[C@@H](C(=O)O)NC(=O)[C@H](Cc2c[nH]c3ccccc23)NC(=O)[C@H](C)NC(=O)[C@H](CS)NC1=O [compound 207] (HELM PEPTIDE1{K.W.F.L.I.C.A.W.[O=C(O)[C@H](CC(=O)[*:2])N[*:1]].G}$PEPTIDE1,PEPTIDE1,1:R3-10:R2$$$V2.0) | 107
14 | < 7.5 | 0.93 | 0.4 to 1 | CC[C@H](C)[C@H](NC(=O)[C@H](CC(C)C)NC(=O)[C@H](Cc1ccccc1)NC(=O)[C@H](Cc1c[nH]c2ccccc12)NC(=O)[C@H](C)N)C(=O)N[C@@H](CO)C(=O)N[C@@H](Cc1ccccc1)C(=O)N[C@@H](Cc1c[nH]c2ccccc12)C(=O)NCC(=O)O [compound 209] (H-AWFLISFWG-OH) | 91
15 | < 7.5 | 1.35 | 0.4 to 1 | CC[C@H](C)[C@H](NC(=O)[C@H](CC(C)C)NC(=O)[C@H](CC1CCCCC1)NC(=O)[C@H](Cc1c[nH]c2ccccc12)NC(=O)[C@H](CCSC)NC(C)=O)C(=O)N[C@@H](CO)C(=O)N[C@@H](Cc1ccccc1)C(=O)N[C@@H](Cc1c[nH]c2ccccc12)C(=O)NCC(=O)O [compound 216] (HELM PEPTIDE1{[ac].M.W.[Cha].L.I.S.F.W.G}$$$$V2.0) | 100
